What all share (type): functional
Assay [1] has as its system Staphylococcus aureus. Description: Antibacterial activity against Staphylococcus aureus 1199 measured after 24 hrs by Muller Hinton broth based MTT assay. (Formazan colour is commonly taken as a measure of viable cells.)
The subject of assay [2] is Staphylococcus aureus. Description: Antibacterial activity against Staphylococcus aureus K1758 measured after 24 hrs by Muller Hinton broth based MTT assay.
Assay [3] deals with Staphylococcus aureus. The assay is described as follows: Antibacterial activity against Staphylococcus aureus 1199B measured after 24 hrs by Muller Hinton broth based MTT assay.

≈ marks a conversion by molar mass, not a printed value.

Usually MIC stands for the lowest concentration that inhibits growth of the organism. Read a high MIC as weaker potency.

`Fc1ccccc1C1=NC(c2ccccc2)Nc2ccc(Cl)cc21` (centres undefined): the minimal inhibitory concentration (MIC) in the assay with Staphylococcus aureus [1] was 62.5 µg/mL (≈ 186 µM); against Staphylococcus aureus [2] it was 250 µg/mL (≈ 742 µM); against Staphylococcus aureus [3], 500 µg/mL (≈ 1480 µM).

`O=C(O)c1cn(C2CC2)c2cc(N3CCNCC3)c(F)cc2c1=O` [CIPROFLOXACIN]: the figures for the MIC with Staphylococcus aureus [1], against Staphylococcus aureus [2] and in the assay with Staphylococcus aureus [3] were 0.05 µg/mL (≈ 0.151 µM), 0.05 µg/mL (≈ 0.151 µM) and 0.21 µg/mL (≈ 0.634 µM), respectively.

Take `CC1(C)S[C@@H]2[C@H](NC(=O)[C@H](N)c3ccc(O)cc3)C(=O)N2[C@H]1C(=O)O` [AMOXICILLIN]: the results for the MIC in the assay on Staphylococcus aureus [1], in the assay on Staphylococcus aureus [2] and against Staphylococcus aureus [3] were 0.05 µg/mL (≈ 0.137 µM), 0.1 µg/mL (≈ 0.274 µM) and 0.42 µg/mL (≈ 1.15 µM), respectively.

As to `CN[C@@H]1[C@H](O[C@H]2[C@H](O[C@H]3[C@H](O)[C@@H](O)[C@H](N=C(N)N)[C@@H](O)[C@@H]3N=C(N)N)O[C@@H](C)[C@]2(O)C=O)O[C@@H](CO)[C@H](O)[C@H]1O` [STREPTOMYCIN], the values for the MIC with Staphylococcus aureus [1], in the assay on Staphylococcus aureus [2] and with Staphylococcus aureus [3] were 1.7 µg/mL (≈ 2.92 µM), 0.4 µg/mL (≈ 0.688 µM) and 3.5 µg/mL (≈ 6.02 µM), respectively.

As for `C=CCOc1ccc(C2N=C(c3ccccc3)c3ccccc3N2)cc1` (centres undefined), the results for the minimal inhibitory concentration (MIC) against Staphylococcus aureus [1], in the assay with Staphylococcus aureus [2] and in the assay on Staphylococcus aureus [3] were 125 µg/mL (≈ 367 µM), 250 µg/mL (≈ 734 µM) and 500 µg/mL (≈ 1470 µM), respectively.

As to `Brc1ccc(C2N=C(c3ccccc3)c3ccccc3N2)cc1` (centres undefined), the MIC against Staphylococcus aureus [1] was 125 µg/mL (≈ 344 µM); against Staphylococcus aureus [2] it was 250 µg/mL (≈ 688 µM); against Staphylococcus aureus [3], above 1000 µg/mL.

On to `Fc1ccccc1C1=NC(c2ccc(Br)cc2)Nc2ccc(Cl)cc21` (centres undefined), for which the MIC against Staphylococcus aureus [1] is 125 µg/mL (≈ 301 µM); in the assay with Staphylococcus aureus [2], 250 µg/mL (≈ 601 µM); in the assay on Staphylococcus aureus [3] it was above 1000 µg/mL.

`CO[C@H]1/C=C/O[C@@]2(C)Oc3c(C)c(O)c4c(O)c(c(/C=N/N5CCN(C)CC5)c(O)c4c3C2=O)NC(=O)/C(C)=C\C=C\[C@H](C)[C@H](O)[C@@H](C)[C@@H](O)[C@@H](C)[C@H](OC(C)=O)[C@@H]1C` [RIFAMPIN]: the MIC was 0.1 µg/mL (≈ 0.122 µM) in the assay with Staphylococcus aureus [1], 0.1 µg/mL (≈ 0.122 µM) against Staphylococcus aureus [2] and 0.21 µg/mL (≈ 0.255 µM) against Staphylococcus aureus [3].

Take `CN1c2ccc(Cl)cc2C(c2ccccc2)=NC1c1ccco1` (centres undefined): the MIC is 125 µg/mL (≈ 387 µM) against Staphylococcus aureus [1], 250 µg/mL (≈ 774 µM) against Staphylococcus aureus [2] and above 1000 µg/mL in the assay with Staphylococcus aureus [3].

As to `O=[N+]([O-])c1ccc2c(c1)C(c1ccccc1)=NC(c1ccccc1)N2` (centres undefined), the minimum inhibitory concentration (MIC) with Staphylococcus aureus [1] came to 125 µg/mL (≈ 380 µM); against Staphylococcus aureus [2] it was 250 µg/mL (≈ 759 µM); in the assay with Staphylococcus aureus [3], 500 µg/mL (≈ 1520 µM).

For the compound `CC1(C)S[C@@H]2[C@H](NC(=O)[C@H](N)c3ccccc3)C(=O)N2[C@H]1C(=O)O` [AMPICILLIN], the MIC was 0.05 µg/mL (≈ 0.143 µM) against Staphylococcus aureus [1], 0.1 µg/mL (≈ 0.286 µM) against Staphylococcus aureus [2] and 0.42 µg/mL (≈ 1.2 µM) against Staphylococcus aureus [3].

For the compound `c1ccc(C2=NC(c3ccco3)Nc3ccccc32)cc1` (centres undefined), the values for the MIC against Staphylococcus aureus [1], against Staphylococcus aureus [2] and with Staphylococcus aureus [3] were 125 µg/mL (≈ 456 µM), 250 µg/mL (≈ 911 µM) and 500 µg/mL (≈ 1820 µM), respectively.

As to `CC[C@H]1OC(=O)[C@H](C)[C@@H](O[C@H]2C[C@@](C)(OC)[C@@H](O)[C@H](C)O2)[C@H](C)[C@@H](O[C@@H]2O[C@H](C)C[C@H](N(C)C)[C@H]2O)[C@](C)(O)C[C@@H](C)C(=O)[C@H](C)[C@@H](O)[C@]1(C)O` [ERYTHROMYCIN], the figures for the MIC in the assay on Staphylococcus aureus [1], in the assay with Staphylococcus aureus [2] and in the assay with Staphylococcus aureus [3] were 0.1 µg/mL (≈ 0.136 µM), 0.1 µg/mL (≈ 0.136 µM) and 0.42 µg/mL (≈ 0.572 µM), respectively.

As to GENTAMICIN, the MIC against Staphylococcus aureus [1] came to 0.21 µg/mL; against Staphylococcus aureus [2], 0.1 µg/mL; with Staphylococcus aureus [3], 1.7 µg/mL.

As to `CC(=O)NC[C@H]1CN(c2ccc(N3CCOCC3)c(F)c2)C(=O)O1` [LINEZOLID], the MIC in the assay with Staphylococcus aureus [1] stood at 0.85 µg/mL (≈ 2.52 µM); against Staphylococcus aureus [2] it was 0.1 µg/mL (≈ 0.296 µM); against Staphylococcus aureus [3] it was 1.75 µg/mL (≈ 5.19 µM).

Turning to `COc1ccc(C2N=C(c3ccccc3)c3ccccc3N2)cc1` (centres undefined), the results for the MIC in the assay with Staphylococcus aureus [1], against Staphylococcus aureus [2] and against Staphylococcus aureus [3] were 125 µg/mL (≈ 398 µM), 250 µg/mL (≈ 795 µM) and 500 µg/mL (≈ 1590 µM), respectively.

Consider `CN(C)[C@@H]1C(O)=C(C(N)=O)C(=O)[C@@]2(O)C(O)=C3C(=O)c4c(O)cccc4[C@@](C)(O)[C@H]3C[C@@H]12` [TETRACYCLINE], for which the minimal inhibitory concentration (MIC) in the assay with Staphylococcus aureus [1] was found to be 0.02 µg/mL (≈ 0.045 µM); in the assay with Staphylococcus aureus [2], 0.1 µg/mL (≈ 0.225 µM); in the assay with Staphylococcus aureus [3], 0.42 µg/mL (≈ 0.945 µM).

For the compound `Cc1onc(-c2ccccc2)c1C(=O)N[C@@H]1C(=O)N2[C@@H]1SC(C)(C)[C@@H]2C(=O)O` [OXACILLIN], the values for the MIC in the assay with Staphylococcus aureus [1], in the assay on Staphylococcus aureus [2] and in the assay on Staphylococcus aureus [3] were 0.1 µg/mL (≈ 0.249 µM), 0.1 µg/mL (≈ 0.249 µM) and 0.42 µg/mL (≈ 1.05 µM), respectively.
